{
  "source": "patent US6525078B1",
  "about": "“Compound for the treatment of atherosclerotic-thrombotic pathological conditions” (priority 2002, dated 2003)",
  "key": {"rabbit aortae": {"tested_on": "rabbit aortae", "experiment": "Vascular relaxation of contracted aortic rings in vitro", "conditions": "at a concentration of 10^−4 M; contraction induced with norepinephrine (10^−6 M)", "protocol": "The ability to induce vascular relaxation by acting as a donor of nitric oxide was tested in vitro on rabbit aortae. Rings of aortae were suspended in a Krebs-Henseleit solution at 37° C., submitted to a 1 g tension and connected to a force transducer."}, "[1]": {"tested_on": "transcellular synthesis of prostacyclin", "experiment": "Transcellular prostacyclin synthesis: human PRP layered on acetylsalicylic acid-pretreated cultured bovine endothelial cells (6-keto-prostaglandin F1α by radioimmunoassay)", "format": "cell-based", "protocol": "The effects on the transcellular synthesis of prostacyclin from endoperoxides generated in platelets were assessed by layering platelet rich plasma (PRP), obtained from healthy human subjects as described above, on cultured bovine endothelial cells (5×10^5 cells/well). The endothelial cells were pretreated with acetylsalicylic acid (10^−4 M) in order to inhibit the direct synthesis of endoperoxides, and washed twice with Dulbecco's phosphate buffered saline. Then to individual samples of endothelial cells there were added at 37° C. while shaking on an oscillating platform, 0.5 ml of PRP samples pretreated with the test compounds in various concentrations, ranging from […] to 10^−3 M. Collagen (0.5 μg/ml) was then added to each sample. After 2 minutes of contact at 37° C., PRP was removed and centrifuged at 12,000×g, and the supernatant was frozen and kept at −20° C. for the determination of 6-keto-prostaglandin F1α by radioimmunoassay.\n6-Keto-prostaglandin F1α is a stable metabolite into which prostacyclin is rapidly converted."}, "thromboxane synthesis": {"tested_on": "thromboxane synthesis", "experiment": "Thromboxane synthesis in clotting blood (serum TxB2 by radioimmunoassay)", "format": "cell-based", "conditions": "human blood clotted 60 min at 37° C.", "protocol": "Test compounds were added in a series of concentrations ranging from 10^−7 M to 10^−3 M to samples of blood from healthy human subjects, who had not taken cyclooxygenase inhibitors (acetylsalicylic acid, non-steroidal anti-inflammatory agents) for at least two weeks. The blood samples were allowed to clot for 60 min in a bath at 37° C., and then centrifuged at 2500×g for 10 min. The serum was separated and kept frozen at −20° C. for the determination of TxB2 by radio immunoassay. TxB2 is the stable metabolite into which thromboxane A2 is rapidly converted."}, "[2]": {"tested_on": "platelet aggregation in platelet-rich plasma (PRP)", "experiment": "Platelet aggregation in human platelet-rich plasma (aggregometer, light transmittance)", "format": "cell-based", "conditions": "for ability to counteract platelet aggregation by arachidonic acid: aggregation induced by arachidonic acid, human PRP", "protocol": "Platelet aggregation experiments were performed on platelet-rich plasma (PRP) prepared from blood of healthy human subjects, who had not taken cyclooxygenase inhibitors (acetylsalicylic acid, non-steroidal anti-inflammatory agents) for at least two weeks. Blood was collected in test tubes containing a 3.2% sodium citrate solution ( 1/10 of blood volume) and immediately centrifuged at 150×g for 15 minutes. Samples of PRP were further centrifuged at 12,000×g in order to obtain platelet-poor plasma (PPP), used for calibration of light transmittance of the double-channel aggregometer, fixing the transmittance of PRP as 10% and that of PPP as 90%. Platelet aggregation in PRP of each subject was tested measuring the percent increase in transmittance under the addition of increasing amounts of sodium arachidonate, in concentrations in the range from 300 to 900 μM, or of collagen, in concentrations in the range from 0.5 to 2.5 μg/ml, or of U-46619, in concentrations in the range from 0.2 to 1.6 μM. (U-46619, i.e., 9,11-dideoxy-11α, 9α-epoxymethano-prostaglandin F2α is an active synthetic analogue of thromboxane A2 and it is chemically stable, at difference from the natural compound; it is therefore used as a substitute in pharmacological experiments). In this way the threshold concentration, i.e., the concentration inducing a submaximal irreversible aggregation was assessed in each subject with the three agents.\nPRP samples of subjects not responding to the maximal concentrations were discarded."}},
  "data": [
    {"smiles": "COc1ccc(C(=O)N[C@H]2CC[C@H](O[N+](=O)[O-])CC2)cc1C(=O)NCc1cccnc1", "note": "[4-Methoxy-N^1-(4-trans-nitrooxycyclohexyl)-N^3-(3-pyridinylmethyl)-1,3-benzenedicarboxamide]", "values": [
      {"measurement": "relaxation of the aortic ring", "setting": "rabbit aortae", "value": "complete relaxation"},
      {"measurement": "level of prostacyclin metabolite relative to the amount produced in basal conditions by endothelial cells not submitted to cyclooxygenase inhibition", "setting": "[1]; acetylsalicylic acid-treated endothelial cells, collagen 0.5 μg/ml", "value": "8-16 times"},
      {"measurement": "production of the prostacyclin metabolite (6-keto-prostaglandin F1α), level reached", "setting": "[1]; acetylsalicylic acid-treated endothelial cells, collagen 0.5 μg/ml, 2 minutes at 37° C.", "value": "800-1600 μpg/ml"},
      {"measurement": "concentration from which production of the prostacyclin metabolite was markedly increased", "setting": "[1]; collagen 0.5 μg/ml, 2 minutes at 37° C., 6-keto-prostaglandin F1α", "value": "≥ 10^−6 M"}
    ]},
    {"smiles": "CC(=O)Oc1ccccc1C(=O)O", "note": "[acetylsalicylic acid]", "values": [
      {"measurement": "effect on thromboxane synthesis", "setting": "thromboxane synthesis", "value": "at difference from acetylsalicylic acid and ozagrel"},
      {"measurement": "ability to counteract platelet aggregation by arachidonic acid", "setting": "[2]", "value": "shared"}
    ]},
    {"smiles": "O=C(O)Cc1ccc(CCNS(=O)(=O)c2ccc(Cl)cc2)cc1", "note": "[daltroban, p-[2-(p-chlorobenzenesulfonamido)ethyl]phenylacetic]", "values": [
      {"measurement": "stimulation of the synthesis of prostacyclin", "setting": "[1]; PRP on acetylsalicylic acid-treated bovine endothelial cells", "value": "did not stimulate the synthesis of prostacyclin"},
      {"measurement": "ability to counteract the aggregation by U-46619", "setting": "[2]; aggregation induced by U-46619, human PRP", "value": "shared only by daltroban"},
      {"measurement": "ability to counteract platelet aggregation by arachidonic acid", "setting": "[2]", "value": "shared"}
    ]},
    {"smiles": "O=C(O)/C=C/c1ccc(Cn2ccnc2)cc1", "note": "[ozagrel, (E)-3-[4-(1H-imidazol-1-ylmethyl)-phenyl]-2-propenoic acid]", "values": [
      {"measurement": "effect on thromboxane synthesis", "setting": "thromboxane synthesis", "value": "at difference from acetylsalicylic acid and ozagrel"},
      {"measurement": "ability to counteract platelet aggregation by arachidonic acid", "setting": "[2]", "value": "shared"}
    ]}
  ]
}
